Experimental data: ChEMBL document CHEMBL1201861, “Genomics of Drug Sensitity in Cancer screening data, Wellcome Trust Sanger Institute”

Legend:
Assay in all cases: cells
Type in all cases: functional, cell-based
Conditions in all cases: Homo sapiens
A101D = test system: A101D;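 further: growth inhibition of the cell line, measured with a viability assay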
Description: SANGER: Inhibition of human A101D cell growth in a cell viability assay.

COLO-320-HSR = test system: COLO-320-HSR;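 further: growth inhibition of COLO-320-HSR cells, determined with a cell viability assay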
Description: SANGER: Inhibition of human COLO-320-HSR cell growth in a cell viability assay.

NEC8 = test system: NEC8;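 further: growth inhibition of human NEC8 cells, read out by a cell viability assay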
Description: SANGER: Inhibition of human NEC8 cell growth in a cell viability assay.

CTB-1 = test system: CTB-1
Description: SANGER: Inhibition of human CTB-1 cell growth in a cell viability assay.

HC-1 = test system: HC-1;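 further: growth inhibition of HC-1 cells measured by a cell viability assay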
Description: SANGER: Inhibition of human HC-1 cell growth in a cell viability assay.

DMS-114 = test system: DMS-114
COLO-668 = test system: COLO-668
Description: SANGER: Inhibition of human COLO-668 cell growth in a cell viability assay.

RKO = test system: RKO;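 further: growth inhibition of human RKO cells, read out with a cell viability assay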
Description: SANGER: Inhibition of human RKO cell growth in a cell viability assay.

LB1047-RCC = test system: LB1047-RCC;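 further: inhibition of cell growth, determined with a cell viability assay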
Description: SANGER: Inhibition of human LB1047-RCC cell growth in a cell viability assay.

HCC2218 = test system: HCC2218;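 further: cell viability assay read-out, with IC50 given as the concentration that inhibits growth of the cell line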
Description: SANGER: Inhibition of human HCC2218 cell growth in a cell viability assay.

SNB-75 = test system: SNB-75;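 further: cell viability assay measuring growth inhibition of human SNB-75 cells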
Description: SANGER: Inhibition of human SNB75 cell growth in a cell viability assay.

COLO-800 = test system: COLO-800;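 further: growth inhibition of COLO-800 cells, read out with a cell viability assay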
Description: SANGER: Inhibition of human COLO-800 cell growth in a cell viability assay.

NCI-H720 = test system: NCI-H720;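 further: growth inhibition of human NCI-H720 cells determined by a cell viability assay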
Description: SANGER: Inhibition of human NCI-H720 cell growth in a cell viability assay.

SK-N-DZ = test system: SK-N-DZ;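 further: growth inhibition of the cancer cell line, read out through a viability assay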
Description: SANGER: Inhibition of human SK-N-DZ cell growth in a cell viability assay.

TGBC24TKB = test system: TGBC24TKB;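 further: growth inhibition of human TGBC24TKB cells, read out with a cell viability assay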
Description: SANGER: Inhibition of human TGBC24TKB cell growth in a cell viability assay.

SJSA-1 = test system: SJSA-1;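 further: growth inhibition of human SJSA-1 cells, read out through a cell viability measurement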
Description: SANGER: Inhibition of human SJSA-1 cell growth in a cell viability assay.

TGBC1TKB = test system: TGBC1TKB;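 further: growth inhibition of TGBC1TKB cells, read out by a cell viability assay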
Description: SANGER: Inhibition of human TGBC1TKB cell growth in a cell viability assay.

NCI-H226 = test system: NCI-H226;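 further: cell viability read-out used to gauge growth inhibition of the cells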
Description: SANGER: Inhibition of human NCI-H226 cell growth in a cell viability assay.

AM-38 = test system: AM-38;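 further: growth inhibition of AM-38 cells of human origin, read out by a cell viability assay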
Description: SANGER: Inhibition of human AM-38 cell growth in a cell viability assay.

SF-126 = test system: SF-126;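 further: growth inhibition of human SF126 cells, read out with a cell viability assay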
Description: SANGER: Inhibition of human SF126 cell growth in a cell viability assay.

EM-2 = test system: EM-2;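 further: growth inhibition of EM-2 cells, read out with a cell viability assay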
Description: SANGER: Inhibition of human EM-2 cell growth in a cell viability assay.

LAMA-84 = test system: LAMA-84;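 further: growth inhibition of LAMA-84 cells, read out with a cell viability assay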
Description: SANGER: Inhibition of human LAMA-84 cell growth in a cell viability assay.

LS-1034 = test system: LS-1034
Description: SANGER: Inhibition of human LS-1034 cell growth in a cell viability assay.

NCI-H1650 = test system: NCI-H1650;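 further: growth inhibition of human NCI-H1650 cells measured by a cell viability assay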
Description: SANGER: Inhibition of human NCI-H1650 cell growth in a cell viability assay.

MC116 = test system: MC116;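 further: growth inhibition of MC116 cells, read out with a cell viability assay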
Description: SANGER: Inhibition of human MC116 cell growth in a cell viability assay.

NCI-H1355 = test system: NCI-H1355;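 further: growth inhibition of human NCI-H1355 cells, read out by a cell viability assay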
Description: SANGER: Inhibition of human NCI-H1355 cell growth in a cell viability assay.

RH-1 = test system: RH-1;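 further: growth inhibition of human RH-1 cells, read out with a cell viability assay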
Description: SANGER: Inhibition of human RH-1 cell growth in a cell viability assay.

Mo = test system: Mo
Description: SANGER: Inhibition of human Mo-T cell growth in a cell viability assay.

KY821 = test system: KY821;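 further: growth inhibition of human KY821 cells, read out by a cell viability assay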
Description: SANGER: Inhibition of human KY821 cell growth in a cell viability assay.

KGN = test system: KGN;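 further: growth inhibition of KGN cells, read out with a cell viability assay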
Description: SANGER: Inhibition of human KGN cell growth in a cell viability assay.

GR-ST = test system: GR-ST
Description: SANGER: Inhibition of human GR-ST cell growth in a cell viability assay.

A388 = test system: A388;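 further: growth inhibition of human A388 cells, read out with a cell viability assay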
Description: SANGER: Inhibition of human A388 cell growth in a cell viability assay.

LB2241-RCC = test system: LB2241-RCC;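 further: cell viability assay measuring how strongly the cultured human renal carcinoma line is prevented from growing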
Description: SANGER: Inhibition of human LB2241-RCC cell growth in a cell viability assay.

MFM-223 = test system: MFM-223
Description: SANGER: Inhibition of human MFM-223 cell growth in a cell viability assay.

L-428 = test system: L-428
Description: SANGER: Inhibition of human L-428 cell growth in a cell viability assay.

KNS-42 = test system: KNS-42;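 further: growth inhibition of KNS-42 cells, read out with a cell viability assay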
Description: SANGER: Inhibition of human KNS-42 cell growth in a cell viability assay.

EOL1 = test system: EOL1;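 further: growth inhibition of EoL-1 cells, read out by a cell viability assay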
Description: SANGER: Inhibition of human EoL-1-cell cell growth in a cell viability assay.

NCI-H82 = test system: NCI-H82;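 further: growth inhibition of NCI-H82 cells, measured with a cell viability readout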
Description: SANGER: Inhibition of human NCI-H82 cell growth in a cell viability assay.

NCI-H69 = test system: NCI-H69;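 further: growth inhibition of the cell line, read out with a cell viability assay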
Description: SANGER: Inhibition of human NCI-H69 cell growth in a cell viability assay.

CTV-1 = test system: CTV-1;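 further: growth inhibition of the cell line, read out with a cell viability assay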
Description: SANGER: Inhibition of human CTV-1 cell growth in a cell viability assay.

ALL-PO = test system: ALL-PO;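 further: growth inhibition of ALL-PO cells, read out by a cell viability assay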
Description: SANGER: Inhibition of human ALL-PO cell growth in a cell viability assay.

TE-12 = test system: TE-12;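 further: growth inhibition of TE-12 cells, read out by a cell viability assay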
Description: SANGER: Inhibition of human TE-12 cell growth in a cell viability assay.

U-266 = test system: U-266
Description: SANGER: Inhibition of human U-266 cell growth in a cell viability assay.

SK-LMS-1 = test system: SK-LMS-1;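 further: growth inhibition of human SK-LMS-1 cells, read out with a cell viability assay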
Description: SANGER: Inhibition of human SK-LMS-1 cell growth in a cell viability assay.

HD-MY-Z = test system: HD-MY-Z;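 further: growth inhibition of HD-MY-Z cells, read out with a cell viability assay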
Description: SANGER: Inhibition of human HD-MY-Z cell growth in a cell viability assay.

SF-539 = test system: SF-539;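 further: Read-out is a cell viability assay, with IC50 reflecting inhibition of cell growth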
Description: SANGER: Inhibition of human SF539 cell growth in a cell viability assay.

NB13 = test system: NB13;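 further: cell viability readout measuring growth inhibition of human NB13 cells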
Description: SANGER: Inhibition of human NB13 cell growth in a cell viability assay.

NCI-H747 = test system: NCI-H747;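 further: growth inhibition of human NCI-H747 cells, read out by a cell viability assay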
Description: SANGER: Inhibition of human NCI-H747 cell growth in a cell viability assay.

CAS-1 = test system: CAS-1;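 further: growth inhibition of CAS-1 cells, measured with a cell viability assay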
Description: SANGER: Inhibition of human CAS-1 cell growth in a cell viability assay.

TE-8 = test system: TE-8;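 further: growth inhibition of TE-8 cells, measured with a cell viability readout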
Description: SANGER: Inhibition of human TE-8 cell growth in a cell viability assay.

MSTO-211H = test system: MSTO-211H
Description: SANGER: Inhibition of human MSTO-211H cell growth in a cell viability assay.

NCI-H1395 = test system: NCI-H1395;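 further: cell viability assay read-out quantifying reduced proliferation of human NCI-H1395 cells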
Description: SANGER: Inhibition of human NCI-H1395 cell growth in a cell viability assay.

HCC1187 = test system: HCC1187;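 further: growth inhibition of HCC1187 cells, read out with a cell viability assay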
Description: SANGER: Inhibition of human HCC1187 cell growth in a cell viability assay.

TE-9 = test system: TE-9;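 further: cell growth inhibition, measured with a cell viability readout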
Description: SANGER: Inhibition of human TE-9 cell growth in a cell viability assay.

DSH1 = test system: DSH1;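 further: growth inhibition of human DSH1 cells, measured with a cell viability readout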
Description: SANGER: Inhibition of human DSH1 cell growth in a cell viability assay.

Becker = test system: Becker;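 further: growth inhibition of Becker cells, read out with a cell viability assay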
Description: SANGER: Inhibition of human Becker cell growth in a cell viability assay.

KNS-81-FD = test system: KNS-81-FD;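 further: growth inhibition of KNS-81-FD cells, read out with a cell viability assay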
Description: SANGER: Inhibition of human KNS-81-FD cell growth in a cell viability assay.

KINGS-1 = test system: KINGS-1
Description: SANGER: Inhibition of human KINGS-1 cell growth in a cell viability assay.

NB10 = test system: NB10
Description: SANGER: Inhibition of human NB10 cell growth in a cell viability assay.

GB-1 = test system: GB-1
Description: SANGER: Inhibition of human GB-1 cell growth in a cell viability assay.

ES1 = test system: ES1
Description: SANGER: Inhibition of human ES1 cell growth in a cell viability assay.

CGTH-W-1 = test system: CGTH-W-1
Description: SANGER: Inhibition of human CGTH-W-1 cell growth in a cell viability assay.

BB30-HNC = test system: BB30-HNC
Description: SANGER: Inhibition of human BB30-HNC cell growth in a cell viability assay.

HOP-62 = test system: HOP-62
Description: SANGER: Inhibition of human HOP-62 cell growth in a cell viability assay.

SNU-C2B = test system: SNU-C2B
Description: SANGER: Inhibition of human SNU-C2B cell growth in a cell viability assay.

HDLM-2 = test system: HDLM-2
Description: SANGER: Inhibition of human HDLM-2 cell growth in a cell viability assay.

`CCNc1cc(N[C@H]2CC[C@@H](O)CC2)nc(Nc2ccc3c(ccn3Cc3ccccc3)c2)n1` showed an IC50 (A101D) greater than 5.12 µM, an IC50 (COLO-320-HSR) greater than 5.12 µM and an IC50 (NEC8) greater than 5.12 µM. It also gave an IC50 (CTB-1) greater than 5.12 µM, an IC50 (HC-1) greater than 5.12 µM and an IC50 (DMS-114) greater than 5.12 µM. It also gave an IC50 (COLO-668) greater than 5.12 µM, an IC50 (RKO) of 4.72 µM and an IC50 (LB1047-RCC) greater than 5.12 µM. For the same compound, the IC50 (HCC2218) was greater than 5.12 µM, the IC50 (SNB-75) was greater than 5.12 µM and the IC50 (COLO-800) was greater than 5.12 µM. It also gave an IC50 (NCI-H720) greater than 5.12 µM, an IC50 (SK-N-DZ) greater than 5.12 µM and an IC50 (TGBC24TKB) greater than 5.12 µM. For the same compound, the IC50 (SJSA-1) was greater than 5.12 µM, the IC50 (TGBC1TKB) was greater than 5.12 µM and the IC50 (NCI-H226) was greater than 5.12 µM. The IC50 (AM-38) was greater than 5.12 µM, the IC50 (SF-126) was greater than 5.12 µM and the IC50 (EM-2) was greater than 5.12 µM. For the same compound, the IC50 (LAMA-84) was greater than 5.12 µM, the IC50 (LS-1034) was greater than 5.12 µM and the IC50 (NCI-H1650) was greater than 5.12 µM. For the same compound, the IC50 (MC116) was greater than 5.12 µM, the IC50 (NCI-H1355) was greater than 5.12 µM and the IC50 (RH-1) was greater than 5.12 µM. For the same compound, the IC50 (Mo) was greater than 5.12 µM, the IC50 (KY821) was greater than 5.12 µM and the IC50 (KGN) was greater than 5.12 µM. The IC50 (GR-ST) was greater than 5.12 µM, the IC50 (A388) was greater than 5.12 µM and the IC50 (LB2241-RCC) was greater than 5.12 µM. It also gave an IC50 (MFM-223) greater than 5.12 µM, an IC50 (L-428) greater than 5.12 µM and an IC50 (KNS-42) greater than 5.12 µM. The IC50 (EOL1) was greater than 5.12 µM, the IC50 (NCI-H82) was greater than 5.12 µM and the IC50 (NCI-H69) was greater than 5.12 µM. For the same compound, the IC50 (CTV-1) was greater than 5.12 µM, the IC50 (ALL-PO) was greater than 5.12 µM and the IC50 (TE-12) was 5.05 µM. It also gave an IC50 (U-266) greater than 5.12 µM, an IC50 (SK-LMS-1) greater than 5.12 µM and an IC50 (HD-MY-Z) greater than 5.12 µM. The IC50 (SF-539) was greater than 5.12 µM, the IC50 (NB13) was greater than 5.12 µM and the IC50 (NCI-H747) was greater than 5.12 µM. The IC50 (CAS-1) was greater than 5.12 µM, the IC50 (TE-8) was greater than 5.12 µM and the IC50 (MSTO-211H) was greater than 5.12 µM. It also gave an IC50 (NCI-H1395) greater than 5.12 µM, an IC50 (HCC1187) greater than 5.12 µM and an IC50 (TE-9) greater than 5.12 µM. It also gave an IC50 (DSH1) greater than 5.12 µM, an IC50 (Becker) greater than 5.12 µM and an IC50 (KNS-81-FD) greater than 5.12 µM. The IC50 (KINGS-1) was greater than 5.12 µM, the IC50 (NB10) was greater than 5.12 µM and the IC50 (GB-1) was greater than 5.12 µM. The IC50 (ES1) was greater than 5.12 µM, the IC50 (CGTH-W-1) was greater than 5.12 µM and the IC50 (BB30-HNC) was 4.6 µM. The IC50 (HOP-62) was greater than 5.12 µM, the IC50 (SNU-C2B) was greater than 5.12 µM and the IC50 (HDLM-2) was greater than 5.12 µM.
